# Results: patent US20100305120A1, “COMPOUNDS FOR TREATING MUSCULAR DYSTROPHY” (BIOMARIN IGA LIMITED, priority 2008, published 2010)
# Test system: Utrophin A promoter linked to a luciferase reporter gene
# Experiment: Luciferase reporter assay (murine H2K cells), H2K/mdx/Utro A reporter cell line
# Type: cell-based
# Settings: 48 h; test compound concentration 10 μM; mdx mouse H2K Utrophin A reporter cells; read-out: Activity (luciferase level relative to control)
# Experimental: Luciferase Reporter Assay (Murine H2K Cells)
# The cell line used for the screen is an immortalized mdx mouse H2K cell line that has been stably transfected with a plasmid containing ≈5 kb fragment of the Utrophin A promoter including the first untranslated exon linked to a luciferase reporter gene.
# Under conditions of low temperature and interferon containing media, the cells remain as myoblasts. These are plated into 96 well plates and cultured in the presence of compound for three days. The level of luciferase is then determined by cell lysis and reading of the light output from the expressed luciferase gene utilising a plate luminometer.
# Luciferase Assay for 96 Well Plates
# The H2K/mdx/Utro A reporter cell line cells were plated out into 96 well plates (Falcon 353296, white opaque) at a density of approximately 5000 cells/well in 190 μl normal growth medium. The plates were then incubated at 33° C. in the presence of 10% CO2 for 24 hrs.
# Compounds were dosed by adding 10 μl of diluted compound to each well giving a final concentration of 10 μM (where a different final concentration was required, the amount of compound solution added was amended accordingly). The plates were then incubated for a further 48 hrs. Cells were then lysed in situ following the manufacture's protocols (Promega Steady-Glo Luciferase Assay System(E2520). Then counted for 10 seconds using a plate luminometer (Victor1420).
# Compounds for screening were stored at −20° C. as 10 mM stocks in 100% DMSO until required.
# Biological activity as assessed using the luciferase reporter assay in murine H2K cells, and the results are shown in Table 1, which also lists the concentration of the test compound solution in μM.
row,SMILES,activity at 10 µM [%]
1,"COc1ccc(NC(=O)c2nn(Cc3ccc(S(C)(=O)=O)cc3)c3ccccc23)cc1 [Compound 34, N-(4-methoxyphenyl)-1-(4-(methylsulfonyl)benzyl)-1H-indazole-3-carboxamide]",301 to 400
2,"CS(=O)(=O)c1ccc(Cn2nc(C(=O)Nc3ccc4c(c3)OC(F)(F)O4)c3ccccc32)cc1 [Compound 35, N-(2,2-difluorobenzo[d][1,3]dioxol-5-yl)-1-(4-(methylsulfonyl)benzyl)-1H-indazole-3-carboxamide]",< 200
3,"CON(C)S(=O)(=O)c1ccc(Cn2nc(C(=O)Nc3nccs3)c3ccccc32)cc1 [Compound 36, 1-(4-(N-methoxy-N-methylsulfamoyl)benzyl)-N-(thiazol-2-yl)-1H-indazole-3-carboxamide]",< 200
4,"COc1ccc(CCNC(=O)Nc2nn(Cc3cc4c(cc3Cl)OCO4)c3ccccc23)cc1 [Compound 37, 1-(1-((6-chlorobenzo[d][1,3]dioxol-5-yl)methyl)-1H-indazol-3-yl)-3-(4-methoxyphenethyl)urea]",< 200
5,"NC(=O)c1ccc(NC(=O)c2nn(Cc3ccc(C(=O)N4CCOCC4)cc3)c3ccccc23)cc1 [Compound 38, N-(4-carbamoylphenyl)-1-(4-(morpholine-4-carbonyl)benzyl)-1H-indazole-3-carboxamide]",201 to 300
6,"CCN(CC)S(=O)(=O)c1ccc(Cn2nc(C(=O)Nc3ccccn3)c3ccccc32)cc1 [Compound 39, 1-(4-(N,N-diethylsulfamoyl)benzyl)-N-(pyridin-2-yl)-1H-indazole-3-carboxamide]",< 200
7,"CCN(CC)S(=O)(=O)c1ccc(Cn2nc(C(=O)Nc3ccc4c(c3)C(=O)N(C)C4=O)c3ccccc32)cc1 [Compound 41, 1-(4-(N,N-diethylsulfamoyl)benzyl)-N-(2-methyl-1,3-dioxoisoindolin-5-yl)-1H-indazole-3-carboxamide]",< 200
8,"CC(C)(C)c1ccc(Cn2nc(C(=O)Nc3ccc4c(c3)OCO4)c3ccccc32)cc1 [Compound 42, N-(benzo[d][1,3]dioxol-5-yl)-1-(4-tert-butylbenzyl)-1H-indazole-3-carboxamide]",> 401
9,"O=C(Nc1ccc(N2CCCCC2)cc1)c1nn(CCOc2ccc(F)cc2)c2ccccc12 [Compound 43, 1-(2-(4-fluorophenoxy)ethyl)-N-(4-(piperidin-1-yl)phenyl)-1H-indazole-3-carboxamide]",< 200
10,"COc1cccc(OCc2ccc(Cn3nc(NC(=O)NCc4ccccc4OC)c4ccccc43)cc2)c1 [Compound 44, 1-(2-methoxybenzyl)-3-(1-(4-((3-methoxyphenoxy)methyl)benzyl)-1H-indazol-3-yl)urea]",< 200
11,"O=C(Nc1ccc2c(c1)OCO2)c1nn(CCCOc2ccccc2)c2ccccc12 [Compound 45, N-(benzo[d][1,3]dioxol-5-yl)-1-(3-phenoxypropyl)-1H-indazole-3-carboxamide]",> 401
12,"O=C(Nc1ccc2c(c1)OCO2)c1nn(CCOc2ccc(F)cc2)c2ccccc12 [Compound 46, N-(benzo[d][1,3]dioxol-5-yl)-1-(2-(4-fluorophenoxy)ethyl)-1H-indazole-3-carboxamide]",< 200
13,"O=C(NCc1ccccc1F)Nc1nn(Cc2cc3c(cc2Cl)OCO3)c2ccccc12 [Compound 47, 1-(1-((6-chlorobenzo[d][1,3]dioxol-5-yl)methyl)-1H-indazol-3-yl)-3-(2-fluorobenzyl)urea]",< 200
14,"CC(C)(C)c1ccc(Cn2nc(C(=O)Nc3ccc4c(c3)OC(F)(F)O4)c3ccccc32)cc1 [Compound 48, 1-(4-tert-butylbenzyl)-N-(2,2-difluorobenzo[d][1,3]dioxol-5-yl)-1H-indazole-3-carboxamide]",< 200
15,"CON(C)S(=O)(=O)c1ccc(Cn2nc(C(=O)Nc3ccccn3)c3ccccc32)cc1 [Compound 49, 1-(4-(N-methoxy-N-methylsulfamoyl)benzyl)-N-(pyridin-2-yl)-1H-indazole-3-carboxamide]",< 200
16,"O=C(Nc1ccc2c(c1)OCO2)c1nn(Cc2ccc(-c3ccccc3)cc2)c2ccccc12 [Compound 50, N-(benzo[d][1,3]dioxol-5-yl)-1-(biphenyl-4-ylmethyl)-1H-indazole-3-carboxamide]",< 200
17,"Cc1cccc(NC(=O)Nc2nn(Cc3ccc(COc4ccc5c(c4)OCO5)cc3)c3ccc(C(F)(F)F)cc23)c1 [Compound 51, 1-(1-(4-((benzo[d][1,3]dioxol-5-yloxy)methyl)benzyl)-5-(trifluoromethyl)-1H-indazol-3-yl)-3-m-tolylurea]",< 200

row,SMILES,activity at 10 µM [%]
1,"COc1cc(NC(=O)Nc2nn(Cc3cc4c(cc3Cl)OCO4)c3ccccc23)cc(OC)c1 [Compound 52, 1-(1-((6-chlorobenzo[d][1,3]dioxol-5-yl)methyl)-1H-indazol-3-yl)-3-(3,5-dimethoxyphenyl)urea]",< 200
2,"O=C(Nc1ccc2c(c1)CCC2)Nc1nn(Cc2ccc(C(F)(F)F)cc2)c2ccccc12 [Compound 53, 1-(2,3-dihydro-1H-inden-5-yl)-3-(1-(4-(trifluoromethyl)benzyl)-1H-indazol-3-yl)urea]",< 200
3,"COc1cccc(OCc2ccc(Cn3nc(NC(=O)Nc4ccc(OC)c(OC)c4)c4ccccc43)cc2)c1 [Compound 54, 1-(3,4-dimethoxyphenyl)-3-(1-(4-((3-methoxyphenoxy)methyl)benzyl)-1H-indazol-3-yl)urea]",< 200
4,"O=C(NCc1ccco1)Nc1nn(Cc2cc3c(cc2Cl)OCO3)c2ccccc12 [Compound 55, 1-(1-((6-chlorobenzo[d][1,3]dioxol-5-yl)methyl)-1H-indazol-3-yl)-3-(furan-2-ylmethyl)urea]",< 200
5,"COc1ccc(NC(=O)c2nn(CCOc3ccccc3)c3ccccc23)cc1 [Compound 56, N-(4-methoxyphenyl)-1-(2-phenoxyethyl)-1H-indazole-3-carboxamide]",< 200
6,"Cc1ccc(NC(=O)Nc2nn(Cc3ccc(COc4ccc5c(c4)OCO5)cc3)c3ccc(C(F)(F)F)cc23)cc1 [Compound 57, 1-(1-(4-((benzo[d][1,3]dioxol-5-yloxy)methyl)benzyl)-5-(trifluoromethyl)-1H-indazol-3-yl)-3-p-tolylurea]",< 200
7,"O=C(Nc1ccc2c(c1)OCO2)c1nn(CCOc2ccccc2)c2ccccc12 [Compound 58, N-(benzo[d][1,3]dioxol-5-yl)-1-(2-phenoxyethyl)-1H-indazole-3-carboxamide]",201 to 300
8,"Cc1ccc(NC(=O)Nc2nn(Cc3ccc(C(F)(F)F)cc3)c3ccccc23)cc1 [Compound 59, 1-p-tolyl-3-(1-(4-(trifluoromethyl)benzyl)-1H-indazol-3-yl)urea]",< 200
9,"CC(C)c1ccc(NC(=O)c2nn(CCOc3ccc(F)cc3)c3ccccc23)cc1 [Compound 60, 1-(2-(4-fluorophenoxy)ethyl)-N-(4-isopropylphenyl)-1H-indazole-3-carboxamide]",< 200
10,"O=C(Nc1ccc(OC(F)(F)F)cc1)c1nn(Cc2ccc(C(=O)N3CCOCC3)cc2)c2ccccc12 [Compound 61, 1-(4-(morpholine-4-carbonyl)benzyl)-N-(4-(trifluoromethoxy)phenyl)-1H-indazole-3-carboxamide]",> 401
11,"CC(C)c1ccc(NC(=O)c2nn(Cc3ccc(S(C)(=O)=O)cc3)c3ccccc23)cc1 [Compound 62, N-(4-isopropylphenyl)-1-(4-(methylsulfonyl)benzyl)-1H-indazole-3-carboxamide]",301 to 400
12,"O=C(Nc1ccc2c(c1)OCO2)c1nn(Cc2ccc(C(=O)N3CCOCC3)cc2)c2ccccc12 [Compound 63, N-(benzo[d][1,3]dioxol-5-yl)-1-(4-(morpholine-4-carbonyl)benzyl)-1H-indazole-3-carboxamide]",> 401
13,"NC(=O)c1ccc(NC(=O)c2nn(Cc3ccc(S(=O)(=O)N4CCOCC4)cc3)c3ccccc23)cc1 [Compound 64, N-(4-carbamoylphenyl)-1-(4-(morpholinosulfonyl)benzyl)-1H-indazole-3-carboxamide]",< 200
14,"COc1ccc(NC(=O)c2nn(Cc3ccc(C(C)(C)C)cc3)c3ccccc23)cc1 [Compound 65, 1-(4-tert-butylbenzyl)-N-(4-methoxyphenyl)-1H-indazole-3-carboxamide]",201 to 300
15,"C#CCN(C)S(=O)(=O)c1ccc(Cn2nc(C(=O)Nc3ccc(C(C)C)cc3)c3ccccc32)cc1 [Compound 66, N-(4-isopropylphenyl)-1-(4-(N-methyl-N-(prop-2-ynyl)sulfamoyl)benzyl)-1H-indazole-3-carboxamide]",< 200
16,"O=C(Nc1ccccn1)c1nn(CCOc2ccc(F)cc2)c2ccccc12 [Compound 67, 1-(2-(4-fluorophenoxy)ethyl)-N-(pyridin-2-yl)-1H-indazole-3-carboxamide]",< 200

# Same assay, conditions: 48 h; test compound concentration 30 μM; mdx mouse H2K Utrophin A reporter cells; read-out: Activity (luciferase level relative to control)
row,SMILES,activity at 30 µM [%]
1,"O=C(Nc1ccccc1OC(F)(F)F)Nc1nn(Cc2ccc(C(F)(F)F)cc2)c2ccccc12 [Compound 40, 1-(2-(trifluoromethoxy)phenyl)-3-(1-(4-(trifluoromethyl)benzyl)-1H-indazol-3-yl)urea]",< 200
